Laboratory results: patent US20220184000A1, “USE OF CANNABIDIOL IN THE TREATMENT OF DRAVET SYNDROME” (priority 2019, published 2022)

How the values were obtained:
Assay type in all cases: in vivo
wild type (WT) mice = experiment: Neonatal welfare scoring (TNW) in wild type mice, Study I
Protocol: 129S-Scn1a^tm1Keammjax heterozygote mice (Jackson Laboratory, USA) were maintained in and bred together to obtain Scn1a^−/− and wild type (WT) animals used for this Study (n=10 per group).
Following genotyping, animals were randomly divided into four groups WT vehicle-treated, WT CBD-treated, Scn1a^−/− vehicle-treated and Scn1a^−/− CBD-treated (n=10/group). They were injected subcutaneously twice daily with either CBD (100 mg/kg) or its vehicle (ethanol:Kolliphor®:0.9% saline=2:1:17) from P8 until P25 or death (whichever was earlier).
A twice daily welfare check was conducted throughout the entire duration of the study. Drug administration was conducted at 0800 h and followed by welfare checks. Conversely, afternoon welfare checks were conducted from 1600 h and followed by drug administration in order to provide the maximum possible time between doses. […]
The parameters used for the welfare assessment were: weight, natural activity (NA; 0-3), reflex/response to touch (RT; 0-3), orbital tightening (OT; 0-2), and body condition score (BC; 1-3). A total neonatal welfare score (TNW; range 0-8) was calculated by adding together scores from NA, RT, and […].
In Study I, the welfare parameters were analysed using SPSS 24 (IBM SPSS Statistics®, UK), whilst survival data were analysed using GraphPad Prism 6 software (GraphPad Software, Inc., USA). […] All the data are expressed as mean±SEM. […]

Scn1a^+/− mice [1] = experiment: Survival / premature mortality in Scn1a^+/− mice, Study II (chronic model of Dravet syndrome)
Protocol: The animals were group housed throughout Study II except for 3 days during sucrose preference test when each animal was individually housed. This experiment was conducted in dark cycle (dim red light, 8:00-20:00 h). Male 129S-Scn1^atm1Kea/Mmjax heterozygote mice (Jackson Laboratory, USA) were bred with female wild type C57BL/6 mice (Charles River, UK) to obtain Scn1a^+/− and wild type (WT) littermate mice used in this study. At the end of the study, animals were humanely killed by cervical dislocation. […]
As seizure-related deaths in this model were unpredictable, animals were video monitored continuously (24 h×7 days) throughout the study and any mortality observed was cross checked with the available video footage to confirm the reason of death.
(§1) In Study II, the data were analysed in GraphPad Prism 6 software. […] Data obtained from rotarod, gait, social interaction (active interaction), EPM, sucrose preference, RAM (RME) tests were normally distributed and the differences between the three groups were analysed by one-way ANOVA. […] Parametric data are presented in scattered dot plot in the figures and are expressed as mean±SEM. Non-parametric data are presented in box plot in the figures and are expressed as median, min to max, and interquartile range (IQR). […]

Scn1a^+/− mice [2] = experiment: Accelerated rotarod test (motor function), Study II
Protocol: (§2) Here, Scn1a^+/− were randomly divided into two groups and subcutaneously injected with either CBD (100 mg/kg twice daily; n=12) or its vehicle (ethanol:Kolliphor®:0.9% saline=2:1:17; n=29) from P8 onwards until P52 or death (whichever was earlier).
Fine motor control in animals were assessed by the accelerated rotarod and static beam tests. Animals were habituated to the stationary rotarod for 2 min a day for 2 days. In the accelerated rotarod test each mouse was placed individually on a linearly accelerating rod (4-40 rpm over 5 minutes; LE8500, Letica Scientific Instruments, UK) and average latency to fall from the rod (maximum 300 seconds) was calculated from 3 consecutive trials (2 min interval between trials).
as §1, with “software. Survival curves of Scn1a^+/− vehicle-treated and Scn1a^+/− CBD-treated group were compared using a Mantel-Cox test.” for “software.”

Scn1a^+/− mice [3] = experiment: Gait test, Study II; conditions: CBD 100 mg/kg s.c. twice daily
Protocol: as §2
Gait test was conducted to assess the cerebellar function of the animals (Patel & Hillard, 2001). In this test, the hind paws of each mouse were marked with a non-toxic ink and the mouse was allowed to walk on a white paper (50×10 cm) placed on the floor of a custom-made plexiglass tunnel (50×10×10 cm). To obtain the left and right stride length, the distance between two ipsilateral paw prints was measured, whereas stride width was calculated from the distance between a footprint and its contralateral stride length at right angle (Wecker et al., 2013). The initial and last footprints were not considered in measurements. All the animals were habituated to the test procedures and the apparatus for 2 days prior to the test. On the day of test, two trials were conducted for each animal to obtain mean stride length (left or right) and width for that animal.
In Study II, the data were analysed in GraphPad Prism 6 software. Survival curves of Scn1a^+/− vehicle-treated and Scn1a^+/− CBD-treated group were compared using a Mantel-Cox test. The percentage of animals from the Scn1a^+/− vehicle-treated and Scn1a^+/− CBD-treated groups that survived until the end of the study (P52) were compared by Fisher's exact test. Further, data obtained from the comorbidity assessment were checked for normality by D'Agostino & Pearson omnibus normality test. Data obtained from rotarod, gait, social interaction (active interaction), EPM, sucrose preference, RAM (RME) tests were normally distributed and the differences between the three groups were analysed by one-way ANOVA. […] Parametric data are presented in scattered dot plot in the figures and are expressed as mean±SEM. Non-parametric data are presented in box plot in the figures and are expressed as median, min to max, and interquartile range (IQR). […]

Question: How did the “TNW score versus WT vehicle-treated animals (post hoc)” value (wild type (WT) mice; P8-P8.5, first day of treatment, CBD 100 mg/kg s.c. twice daily, p<0.05, FIG. 1A) turn out when `C=C(C)[C@@H]1CCC(C)=C[C@H]1c1c(O)cc(CCCCC)cc1O` [CBD, cannabidiol] was run?
Answer: The value was “improved TNW score”.

Question: And the “mean total neonatal welfare (TNW) score” value (wild type (WT) mice; WT CBD-treated group, CBD 100 mg/kg s.c. twice daily from P8 until P25, n=10, mean±SEM, score range 0-8, vehicle group 0.39±0.04)?
Answer: Its value is 0.24±0.04.

Question: What about the “survival curve, Scn1a^+/− vehicle-treated versus CBD-treated” value (Scn1a^+/− mice [1]; CBD 100 mg/kg s.c. twice daily from P8 until P52 or death, n=12 CBD, n=29 vehicle, Mantel-Cox p=0.04, FIG. 2A) of the same molecule?
Answer: The value was “Survival was significantly less in Scn1a^+/− vehicle-treated group”.

Question: What about the “animals that died before the completion of the study (P52)” value (Scn1a^+/− mice [1]; Scn1a^+/− CBD-treated, 2 of 12, CBD 100 mg/kg s.c. twice daily from P8, vehicle approximately 66% (19 of 29), p<0.0001, FIG. 2B) of the same molecule?
Answer: Its value is 17%.

Question: And the “time spent on rod, accelerating rotarod, between the groups” value (Scn1a^+/− mice [2]; WT vehicle, Scn1a^+/− vehicle, Scn1a^+/− CBD (100 mg/kg s.c. twice daily), p=0.44, FIG. 3A)?
Answer: The value was “no significant difference”.

Question: And the “effects on motor function (conclusion)” value (Scn1a^+/− mice [2]; conclusion from rotarod and static beam tests in Scn1a^+/− mice, chronic CBD 100 mg/kg s.c. twice daily)?
Answer: The value was “no detrimental effects on motor function”.

Question: What about the “stride width between the three groups” value (Scn1a^+/− mice [3]; p=0.17, FIG. 3E) of the same molecule?
Answer: The value was “no significant change”.

Question: What about the “left stride length between the three groups” value (Scn1a^+/− mice [3]; p=0.44, FIG. 3C) of the same molecule?
Answer: Its value is “no significant change”.

Question: And the “right stride length between the three groups” value (Scn1a^+/− mice [3]; p=0.44, FIG. 3D)?
Answer: Its value is “no significant change”.
